Experimental findings from patent publication US8494269B2, “Method and system for screening of a to-be-analyzed candidate as a skin-whitening agent” (National Sun Yat-Sen University, priority 2009, dated 2013) are described below.

Assay [1] deals with zebrafish larvae. The assay can be described thus: Zebrafish larvae skin-whitening screen, number of valid pixels by Image Scion. Format: in vivo, zebrafish (Danio Rerio). The conditions noted are these: for mean of the number of "valid pixels" versus concentration of the administered candidate: FIGS. 11, 12 and 13, 48 h exposure, Image Scion; for concentration giving statistically significant reduction of "valid pixels" in the images of the zebrafish vs control group: embryos exposed 48 h in Hank's buffer/DMSO, p<0.05, ANOVA followed by Duncan's method, Image Scion index 150-254; for conclusion of the screening as skin-whitening agent: second feature parameter smaller than the first with p<0.05. The procedure: The preparation of the zebrafish embryos was similar to, but with small modifications from, that disclosed in M. Westerfield (2007), The Zebrafish Book: A Guide for the Laboratory Use of Zebrafish (Danio Rerio), 5th edit. University of Oregon Press, Eugene, Oreg. First, one female fish and two male fish were put in a breeding tank having an acrylic grid under a water temperature of 28.5 degrees Celsius. Then, the breeding tank was made to undergo a first light-dark cycle of 14 hours of light and 10 hours of darkness. Subsequently, during the second light-dark cycle, the female fish and the male fish would respectively produce eggs and sperms for fertilization so as to obtain fertilized eggs. These fertilized eggs are referred to as fertilized eggs from “the same parental generation”. Next, after an hour, the fertilized eggs were removed from the breeding tank with a dropper, and were disposed in a Petri dish containing the Hank's buffer prepared according to the above-disclosed formula. Later, the Petri dish was disposed in an incubator (RI-80, FIRSTEK, Taiwan) under a controlled temperature of 28.5 degrees Celsius, and a controlled light-dark cycle of 14 hours of light and 10 hours of darkness for a 9-hour breeding process to allow development of the fertilized eggs into embryos. Subsequently, a Leica Z16 APO stereomicroscope (Leica, Heerbrugg, Switzerland) was used for the observation of the development of various embryos. Based on the observations, only well-developed embryos were kept for use in the experiments that followed.
First, arbutin (Sigma, Cat. No. A4256), N-phenylthiourea (Sigma, Cat. No. P7629) and kojic acid (Sigma, Cat. No. K3125) were respectively dissolved in a 2% dimethyl sulfoxide (DMSO) solution prepared from Hank's buffer to result in arbutin solutions with concentrations of 0.1 mM, 0.2 mM, 1 mM, 2 mM, 10 mM and 20 mM, N-phenylthiourea solutions with concentrations of 0.002 mM, 0.02 mM, 0.2 mM, 0.4 mM, 1 mM and 2 mM, and kojic acid solutions with concentrations of 0.2 mM, 1 mM, 2 mM, 20 mM, 40 mM and 100 mM, respectively. Next, each well of a 96-well plate is provided with 100 μL of Hank's buffer. Subsequently, in accordance with the operational conditions set forth below in Table 4, the zebrafish prepared in the way previously described under subsection 2 of section A (Materials used during experimentation) were added respectively to the wells, to which 100 μL of the to-be-analyzed candidates, i.e., arbutin, N-phenylthiourea and kojic acid solutions of various concentrations, were added so as to result in the final concentrations as shown in Table 4. The 96-well plate was then disposed in an incubator under a controlled temperature of 28.5 degrees Celsius, and a controlled light-dark cycle of 14 hours of light and 10 hours of darkness for a 48-hour breeding period to allow the embryos to develop into zebrafish larvae. It should be noted herein that the above procedure was for preparation of a plurality of the “second groups of zebrafish” (i.e., test groups (A2˜A7, N2˜N7, K2˜K7)), while each of the “first groups of zebrafish” (each for a kind of the to-be-tested candidate) were prepared using the same breeding process without the administration of the to-be-analyzed candidates so as to form control groups (A1, N1, K1).
A tricaine methanesulfonate solution (MS-222) with a concentration of 168 ppm was used to anesthetize the zebrafish larvae prepared in Procedure A. Next, a depression slide (Micro Scientific Laboratories, Inc., U.S.A., Cat. No. MM-104SC) containing 1% methyl cellulose (Sigma, Cat. No. M0512) was used to mount the zebrafish. Subsequently, Leica Z16 APO stereomicroscope was used to acquire images of the zebrafish with a 25× magnification rate and a 3.372 ms exposure time.
Image Scion was used to determine the mean of the number of “valid pixels” (i.e., pixels whose grayscale levels fall within a predefined range) in the images corresponding to the zebrafish of the same group. […]

The test system of assay [2] is zebrafish larvae. The assay can be described thus: Zebrafish larvae skin-whitening screen, number of valid pixels by ImageJ version 1.40 g. Format: in vivo, zebrafish (Danio Rerio). The conditions noted are these: groups A1-A7, FIG. 14 vs FIG. 11; ImageJ threshold 0-85. The procedure: • (2) ImageJ version 1.40 g (ImageJ, National Institute of Health, Bethesda, Md., U.S.A.) with operation parameters set in Table 3 below for defining the predefined range for a pixel to be considered a “valid pixel”.
First, arbutin (Sigma, Cat. No. A4256), N-phenylthiourea (Sigma, Cat. No. P7629) and kojic acid (Sigma, Cat. No. K3125) were respectively dissolved in a 2% dimethyl sulfoxide (DMSO) solution prepared from Hank's buffer to result in arbutin solutions with concentrations of 0.1 mM, 0.2 mM, 1 mM, 2 mM, 10 mM and 20 mM, N-phenylthiourea solutions with concentrations of 0.002 mM, 0.02 mM, 0.2 mM, 0.4 mM, 1 mM and 2 mM, and kojic acid solutions with concentrations of 0.2 mM, 1 mM, 2 mM, 20 mM, 40 mM and 100 mM, respectively. Next, each well of a 96-well plate is provided with 100 μL of Hank's buffer. Subsequently, in accordance with the operational conditions set forth below in Table 4, the zebrafish prepared in the way previously described under subsection 2 of section A (Materials used during experimentation) were added respectively to the wells, to which 100 μL of the to-be-analyzed candidates, i.e., arbutin, N-phenylthiourea and kojic acid solutions of various concentrations, were added so as to result in the final concentrations as shown in Table 4. […]

Consider `O=c1cc(CO)occ1O` [kojic acid], for which, in the assay on zebrafish larvae [1], the “mean of the number of "valid pixels" versus concentration of the administered candidate” value was “decreases with the concentration”, the “concentration giving statistically significant reduction of "valid pixels" in the images of the zebrafish vs control group” value was “at least 10 mM” and the “conclusion of the screening as skin-whitening agent” value (from here on “conclusion of the screening”) was “suitable as skin-whitening agents”.
On to `NC(=S)Nc1ccccc1` [N-phenylthiourea], for which, in the assay with zebrafish larvae [1], the “mean of the number of "valid pixels" versus concentration of the administered candidate” value was “decreases with the concentration”, the “concentration giving statistically significant reduction of "valid pixels" in the images of the zebrafish vs control group” value is recorded as “at least 0.01 mM” and the “conclusion of the screening” value is given as “suitable as skin-whitening agents”.
Take `OC[C@H]1O[C@@H](Oc2ccc(O)cc2)[C@H](O)[C@@H](O)[C@@H]1O` [arbutin]: in the assay on zebrafish larvae [1], the “mean of the number of "valid pixels" versus concentration of the administered candidate” value is listed as “decreases with the concentration”, the “concentration giving statistically significant reduction of "valid pixels" in the images of the zebrafish vs control group” value is listed as “at least 0.05 mM” and the “conclusion of the screening” value is given as “suitable as skin-whitening agents”. Also, in the assay on zebrafish larvae [2], the “comparison of results obtained using ImageJ version 1.40 g with those using Image Scion” value is given as “no significant difference”.
